Assay results: patent publication US7223784B2, “Compounds for the modulation of the glycolysis enzyme and/or transaminase complex” (ScheBo® Biotech AG, priority 2002, dated 2007)

Key:
[1] = molecular target: cytosolic isoenzyme of the GOT (Homo sapiens, UniProt P17174); test: Effect on activity of GOT isoenzymes in vitro (isoenzymes dissociated by isoelectric focusing), cytosolic isoenzyme; type: biochemical; details: FIG. 1b
Text: (§1) In FIG. 1b is shown the effect of […] (AOA) and hydroxylamine (HA) on the activity of the cytosolic and mitochondrial isoenzyme of the GOT in vitro. The isoenzymes of the GOT were dissociated by an isoelectric focusing. […] The inhibition of the GOT leads to an inhibition of the malate-aspartate shuttle. As a consequence, NAD cannot be recycled, and the glycolysis is inhibited at the stage of the GAPDH.

[2] = molecular target: T1, mitochondrial isoenzyme of the GOT (Homo sapiens, UniProt P00505); test: Effect on activity of GOT isoenzymes in vitro (isoenzymes dissociated by isoelectric focusing), mitochondrial isoenzyme; type: biochemical; details: FIG. 1b
T1 sequence (P00505 30-430): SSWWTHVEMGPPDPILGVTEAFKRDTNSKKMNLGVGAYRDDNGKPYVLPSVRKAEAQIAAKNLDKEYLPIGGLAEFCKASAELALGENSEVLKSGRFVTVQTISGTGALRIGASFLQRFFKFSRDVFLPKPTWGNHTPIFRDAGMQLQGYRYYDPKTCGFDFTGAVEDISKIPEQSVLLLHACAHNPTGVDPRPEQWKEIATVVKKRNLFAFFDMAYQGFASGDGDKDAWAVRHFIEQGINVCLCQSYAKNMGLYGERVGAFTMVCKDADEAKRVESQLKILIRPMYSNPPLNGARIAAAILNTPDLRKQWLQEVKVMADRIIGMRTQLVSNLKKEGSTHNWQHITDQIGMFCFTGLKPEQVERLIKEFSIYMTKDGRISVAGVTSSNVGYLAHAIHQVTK
Text: as §1

Sequence of cytosolic isoenzyme of the GOT (P17174 whole entry): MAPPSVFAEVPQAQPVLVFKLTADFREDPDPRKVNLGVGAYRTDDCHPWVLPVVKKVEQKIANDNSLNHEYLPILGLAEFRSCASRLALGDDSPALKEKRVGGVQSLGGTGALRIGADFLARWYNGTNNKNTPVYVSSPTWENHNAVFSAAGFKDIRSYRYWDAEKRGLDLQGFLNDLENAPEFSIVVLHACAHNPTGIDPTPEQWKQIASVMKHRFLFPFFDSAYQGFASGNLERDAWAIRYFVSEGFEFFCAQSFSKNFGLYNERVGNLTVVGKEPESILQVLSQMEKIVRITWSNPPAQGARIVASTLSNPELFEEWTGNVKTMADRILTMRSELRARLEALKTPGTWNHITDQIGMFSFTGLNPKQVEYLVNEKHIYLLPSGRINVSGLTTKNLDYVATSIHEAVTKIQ

| Compound | effect on the activity of the cytosolic isoenzyme of the GOT [1] | effect on the activity of the mitochondrial isoenzyme of the GOT [2] |
| --- | --- | --- |
| NOCC(=O)O [aminooxyacetate, (aminooxy)acetic acid] | mainly inhibits the cytosolic isoenzyme | – |
| NO [hydroxylamine] | inhibits both isoenzymes | inhibits both isoenzymes |
